Source: US20230278972A1, “SUBSTITUTED HALOALKYL SULFONANILIDE HERBICIDES” (FMC Corporation, priority 2020, published 2023)

Legend:
Format in all cases: in vivo
[1] = test system: Foxtail, Giant (giant foxtail, Setaria faberi); experiment: Test A1 postemergence, Foxtail, Giant; details: for Plant response rating, Foxtail, Giant: Postemergence
Procedure, shortened: (§1)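 Test compounds were formulated in a non-phytotoxic solvent mixture containing a surfactant. For preemergence, seeds sown in a loam soil–sand blend received a directed soil spray. For postemergence, potted plants in the same soil, 2 to 10 cm tall at the one- to two-leaf stage, were sprayed.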

kochia (Bassia scoparia) = experiment: Test A1 preemergence, kochia
Procedure, shortened: (§2)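 Plants grown in pots of loam/sand mix; preemergence = soil-directed spray on seeded pots, postemergence = spray at 1–2 leaves, height 2–10 cm; test chemicals formulated in non-phytotoxic solvent with surfactant.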

[2] = test system: ragweed (common ragweed, Ambrosia artemisiifolia); experiment: Test A1 postemergence, ragweed; details: for Plant response rating, Ragweed: Postemergence
Procedure, shortened: as §2

[3] = test system: Ryegrass, Italian (Italian ryegrass, Lolium multiflorum); experiment: Test A1 preemergence, Ryegrass, Italian
Procedure, shortened: as §2

[4] = test system: Pigweed, Palmer (palmer amaranth, palmer pigweed, Amaranthus palmeri); experiment: Test A1 preemergence, Pigweed, Palmer
Procedure, shortened: as §2

[5] = test system: Ryegrass, Italian (Italian ryegrass, Lolium multiflorum); experiment: Test A1 postemergence, Ryegrass, Italian; details: for Plant response rating, Ryegrass, Italian: Postemergence
Procedure, shortened: as §1

[6] = test system: blackgrass (Alopecurus myosuroides); experiment: Test A1 postemergence, blackgrass; details: Postemergence, 0 to 100 scale (0 no effect, 100 complete control)
Procedure, shortened: as §1

[7] = test system: goosegrass (Eleusine indica); experiment: Test A1 postemergence, goosegrass; details: for Plant response rating, Goosegrass: Postemergence
Procedure, shortened: as §1

[8] = 31 g ai/ha, 0 to 100 scale (0 no effect, 100 complete control), 10 days
[9] = 31 g ai/ha, 0 to 100 scale (0 no effect, 100 complete control)
[10] = 125 g ai/ha, 0 to 100 scale, 0 no effect, 100 complete control
[11] = 31 g ai/ha, postemergence, 0 to 100 scale (0 no effect, 100 complete control)

Row | SMILES | Plant response rating, Foxtail, Giant [1, 8] | Plant response rating, Foxtail, Giant ([1]; 125 g ai/ha, 0 to 100 scale) | Plant response rating, Kochia (kochia (Bassia scoparia); [9]) | Plant response rating, Kochia (kochia (Bassia scoparia); [10]) | Plant response rating, Ragweed [2, 8] | Plant response rating, Ragweed ([2]; 125 g ai/ha, 0 to 100 scale) | Plant response rating, Ryegrass, Italian [3, 9] | Plant response rating, Ryegrass, Italian [3, 10] | Plant response rating, Pigweed, Palmer [4, 9] | Plant response rating, Pigweed, Palmer [4, 10] | Plant response rating, Ryegrass, Italian [5, 8] | Plant response rating, Ryegrass, Italian ([5]; 125 g ai/ha, 0 to 100 scale) | Plant response rating, Blackgrass ([6]; 31 g ai/ha, 10 days) | Plant response rating, Blackgrass ([6]; 125 g ai/ha) | Plant response rating, Goosegrass [7, 8] | Plant response rating, Goosegrass ([7]; 125 g ai/ha, 0 to 100 scale) | Foxtail, Giant plant response rating [1, 11] | Ragweed plant response rating [2, 11] | Ryegrass, Italian plant response rating [5, 11] | Goosegrass plant response rating [7, 11]
1 | Cc1c(C(=O)N2CCOCC2)cc(NS(=O)(=O)C(F)(F)F)c(Cl)c1F [Compound 321] | 0 | 0 | 80 | 90 | 90 | 90 | 60 | 60 | 90 | 100 | 30 | 40 | 10 | 10 | 0 | 80 |  |  |  | 
2 | C#CCN(C)C(=O)c1cc(N(COC(=O)C(C)(C)C)S(=O)(=O)C(F)(F)F)c(C)c(C)c1C [Compound 371] |  | 90 | 0 | 70 |  | 70 | 0 | 80 | 10 | 80 |  | 80 | 0 | 10 |  | 80 | 90 | 40 | 20 | 0
3 | Cc1c(C(=O)N2C[C@@H](C)O[C@@H](C)C2)cc(N(COC(=O)C(C)(C)C)S(=O)(=O)C(F)(F)F)c(C)c1C [Compound 331] | 20 | 80 | 0 | 20 | 70 | 80 | 0 | 0 | 0 | 30 | 10 | 50 | 0 | 50 | 0 | 50 |  |  |  | 
4 | Cc1cc(C)c(N(COC(=O)OC(C)C)S(=O)(=O)C(F)(F)F)cc1C1=NOC2CCCC12 (centres unmarked) [Compound 314] | 10 | 30 | 0 | 70 | 0 | 70 | 40 | 90 | 70 | 70 | 10 | 70 | 0 | 10 | 60 | 80 |  |  |  | 
5 | Cc1cc(C)c(-n2nccc(C)c2=O)cc1NS(=O)(=O)C(F)(F)F [Compound 281] | 0 | 30 | 0 | 20 | 0 | 70 | 0 | 40 | 0 | 40 | 0 | 0 | 0 | 0 | 0 | 40 |  |  |  | 
6 | Cc1cc(C)c(C2=NOC(OCC(C)C)C2)cc1NS(=O)(=O)C(F)(F)F (centres unmarked) [Compound 322] | 0 | 40 | 0 | 20 | 70 | 80 | 60 | 90 | 40 | 90 | 0 | 40 | 20 | 50 | 20 | 50 |  |  |  | 
7 | Cc1cc(C)c(N(COC(=O)C(C)(C)C)S(=O)(=O)C(F)(F)F)cc1C(=O)N1CCOCC1 [Compound 362] | 20 | 90 | 50 | 90 | 70 | 80 | 30 | 70 | 10 | 80 | 30 | 90 | 0 | 50 | 40 | 90 |  |  |  | 
8 | Cc1c(NS(=O)(=O)C(F)(F)F)cc(C(=O)N(C)C)c(C)c1C [Compound 288] | 0 | 70 | 0 | 40 | 30 | 80 | 0 | 0 | 50 | 70 | 0 | 0 | 0 | 0 | 0 | 70 |  |  |  | 
9 | Cc1cc(C)c(N(COC(=O)C(C)(C)C)S(=O)(=O)C(F)(F)F)cc1C(=O)N1CCC(F)(F)CC1 [Compound 350] | 10 | 30 | 20 | 70 | 80 | 90 | 30 | 30 | 20 | 60 | 30 | 30 | 0 | 0 | 10 | 80 |  |  |  | 
10 | Cc1cc(C(F)(F)F)c(C2=NOC3CCCC23)cc1NS(=O)(=O)C(F)(F)F (centres unmarked) [Compound 306] | 0 | 30 | 0 | 30 | 0 | 70 | 0 | 80 | 50 | 100 | 0 | 10 | 0 | 0 | 0 | 80 |  |  |  | 
11 | COC1CCCN(C(=O)c2cc(NS(=O)(=O)C(F)(F)F)c(Cl)c(F)c2C)C1 (centres unmarked) [Compound 334] | 0 | 0 | 0 | 20 | 0 | 50 | 30 | 50 | 20 | 70 | 0 | 0 | 0 | 0 | 0 | 0 |  |  |  | 
12 | CCOC(=O)N(c1cc(C(=O)N2C[C@@H](C)O[C@@H](C)C2)c(C)c(C)c1C)S(=O)(=O)C(F)(F)F [Compound 332] | 30 | 90 | 20 | 60 | 80 | 80 | 0 | 20 | 60 | 90 | 0 | 50 | 0 | 90 | 0 | 90 |  |  |  | 
13 | COCC1CC(c2cc(NS(=O)(=O)C(F)(F)F)c(C)cc2C)=NO1 (centres unmarked) [Compound 319] | 40 | 90 | 0 | 40 | 30 | 60 | 50 | 90 | 70 | 80 | 30 | 50 | 0 | 10 | 70 | 90 |  |  |  | 
14 | Cc1c(C(=O)N2CCCCC2)cc(N(COC(=O)C(C)(C)C)S(=O)(=O)C(F)(F)F)c(C)c1C [Compound 329, [[(Trifluoromethyl)sulfonyl][2,3,4-trimethyl-5-(1-piperidinylcarbonyl)phenyl]amino]methyl 2,2-dimethylpropanoate] | 10 | 70 | 0 | 30 | 40 | 70 | 0 | 0 | 10 | 50 | 0 | 0 | 0 | 30 | 0 | 30 |  |  |  | 
